Test results: the supplement of paper PMC13380429

Columns and labels:
Conditions in all cases: 72 h
Caco-2 [1] = experiment: relative viability EC50 (midpoint between 100% and the lowest measured viability); higher = less toxic
Vero E6 [2] = experiment: as above
HepG2 [3] = experiment: as above
U2OS [4] = experiment: as above
Caco-2 [5] = experiment: drug sensitivity score (DSS) for viability; higher = more toxic; extreme values may be limits of the assay
Vero E6 [6] = experiment: as above
HepG2 [7] = experiment: as above
U2OS [8] = experiment: as above
Caco-2 [9] = experiment: cell viability relative to DMSO; higher = less toxic
Vero E6 [10] = experiment: as above
HepG2 [11] = experiment: as above
U2OS [12] = experiment: as above
Calu-3 [13] = experiment: drug sensitivity score (DSS) for viability; higher = more toxic; extreme values may be limits of the assay
Calu-3 [14] = experiment: cell viability relative to DMSO; higher = less toxic

| Structure (SMILES) | relative viability EC50 (Caco-2 [1]) [µM] | relative viability EC50 (Vero E6 [2]) [µM] | relative viability EC50 (HepG2 [3]) [µM] | relative viability EC50 (U2OS [4]) [µM] | drug sensitivity score (Caco-2 [5]) | drug sensitivity score (Vero E6 [6]) | drug sensitivity score (HepG2 [7]) | drug sensitivity score (U2OS [8]) | cell viability (Caco-2 [9]; 1 nM) [%] | cell viability (Caco-2 [9]; 10 nM) [%] | cell viability (Caco-2 [9]; 100 nM) [%] | cell viability (Caco-2 [9]; 1000 nM) [%] | cell viability (Caco-2 [9]; 10000 nM) [%] | cell viability (Vero E6 [10]; 1 nM) [%] | cell viability (Vero E6 [10]; 10 nM) [%] | cell viability (Vero E6 [10]; 100 nM) [%] | cell viability (Vero E6 [10]; 1000 nM) [%] | cell viability (Vero E6 [10]; 10000 nM) [%] | cell viability (HepG2 [11]; 1 nM) [%] | cell viability (HepG2 [11]; 10 nM) [%] | cell viability (HepG2 [11]; 100 nM) [%] | cell viability (HepG2 [11]; 1000 nM) [%] | cell viability (HepG2 [11]; 10000 nM) [%] | cell viability (U2OS [12]; 1 nM) [%] | cell viability (U2OS [12]; 10 nM) [%] | cell viability (U2OS [12]; 100 nM) [%] | cell viability (U2OS [12]; 1000 nM) [%] | cell viability (U2OS [12]; 10000 nM) [%] | drug sensitivity score (Calu-3 [13]) | cell viability (Calu-3 [14]; 1 nM) [%] | cell viability (Calu-3 [14]; 10 nM) [%] | cell viability (Calu-3 [14]; 100 nM) [%] | cell viability (Calu-3 [14]; 1000 nM) [%] | cell viability (Calu-3 [14]; 10000 nM) [%] |
| --- | --- | --- | --- | --- | --- | --- | --- | --- | --- | --- | --- | --- | --- | --- | --- | --- | --- | --- | --- | --- | --- | --- | --- | --- | --- | --- | --- | --- | --- | --- | --- | --- | --- | --- |
| CCS(=O)(=O)N1CC(CC#N)(n2cc(-c3ncnc4[nH]ccc34)cn2)C1 [baricitinib] | > 10 | > 10 | > 10 | > 10 | 0 | 0 | 0 | 0 | 95.6 | 102 | 92.9 | 97 | 99.7 | 98.6 | 100 | 102 | 102 | 101 | 98.6 | 106 | 91.1 | 107 | 90.3 | 95.4 | 98.5 | 95.1 | 94.4 | 96.4 |  |  |  |  |  |  |
| Cc1ccc(/C=N/NC(=O)c2ccccc2Oc2ccccc2)o1 | > 10 | > 10 | > 10 | > 10 | 0.1 | 0 | 0 | 0 | 96 | 99.6 | 100 | 95.2 | 88.7 | 97 | 101 | 98.9 | 95.6 | 93.7 | 103 | 103 | 91.7 | 94.2 | 102 | 106 | 97.3 | 98.1 | 93 | 98.6 |  |  |  |  |  |  |
| CC(C)C(N)=O [isobutyramide] | > 10 | > 10 | > 10 | > 10 | 0 | 0 | 0 | 0 | 95.1 | 95.6 | 97.9 | 90.2 | 98.2 | 105 | 106 | 96.2 | 98 | 105 | 115 | 99.1 | 90.3 | 101 | 96.8 | 102 | 97.6 | 101 | 98.8 | 104 |  |  |  |  |  |  |
| CC(=O)N[C@H](Cc1ccc2ccccc2c1)C(=O)N[C@H](Cc1ccc(Cl)cc1)C(=O)N[C@H](Cc1cccnc1)C(=O)N[C@@H](CO)C(=O)N[C@@H](Cc1ccc(O)cc1)C(=O)N[C@H](CCCNC(N)=O)C(=O)N[C@@H](CC(C)C)C(=O)N[C@@H](CCCNC(=N)N)C(=O)N1CCC[C@H]1C(=O)N[C@H](C)C(N)=O [cetrorelix] | > 10 | > 10 | > 10 | > 10 | 0 | 0 | 0.6 | 0 | 117 | 95.5 | 110 | 114 | 104 | 105 | 101 | 105 | 99.3 | 90.3 | 102 | 93.7 | 101 | 97.8 | 83.1 | 102 | 93.6 | 96.9 | 95.1 | 100 |  |  |  |  |  |  |
| CCCCC/C=C\C/C=C\C/C=C\CCCCC(=O)O [gamma-linolenic-acid] | > 10 | > 10 | > 10 | > 10 | 0 | 0 | 0 | 0 | 97.9 | 103 | 102 | 116 | 94 | 98.2 | 103 | 97.2 | 103 | 100 | 107 | 115 | 94.8 | 99.2 | 107 | 106 | 106 | 98.9 | 103 | 103 |  |  |  |  |  |  |
| C[C@H](Nc1ncnc2[nH]cnc12)c1nc2ccc(F)cc2c(=O)n1-c1ccccc1 [acalisib] |  | > 10 | > 10 | > 10 | 0.9 | 1.5 | 0.9 | 0 | 105 | 104 | 91.6 | 102 | 74.9 | 104 | 101 | 95.8 | 89.9 | 76.2 | 106 | 107 | 109 | 93.7 | 83.6 | 109 | 104 | 106 | 99.4 | 94.3 | 2.7 | 107 | 103 | 104 | 93.8 | 65.1 |
| O=C(O)[C@@H](S)[C@@H](S)C(=O)O [dimercaptosuccinic-acid] | > 10 | > 10 |  | > 10 | 0 | 0 |  | 0 | 107 | 90.7 | 94.2 | 95.8 | 110 | 99.7 | 102 | 100 | 101 | 104 |  |  |  |  |  | 101 | 98.2 | 101 | 101 | 105 |  |  |  |  |  |  |
| O=C(O)CCCCC(=O)O [adipic-acid] | > 10 | > 10 | > 10 | > 10 | 0 | 0 | 0 | 0 | 89 | 87 | 95.1 | 96.6 | 105 | 94.9 | 99.9 | 89.3 | 93.1 | 102 | 104 | 108 | 94.4 | 97.4 | 105 | 102 | 96.7 | 99.6 | 103 | 104 |  |  |  |  |  |  |
| O=c1cc(-c2ccc(O)c(O)c2)oc2cc(O)cc(O)c12 [luteolin] | > 10 | > 10 | > 10 | > 10 | 1.1 | 0 | 0 | 0.4 | 92.8 | 98.1 | 95.9 | 94.5 | 79.3 | 99.5 | 105 | 94.7 | 101 | 95.3 | 111 | 99.4 | 117 | 97.5 | 90.8 | 99.9 | 105 | 99.9 | 105 | 79.4 | 0.9 | 105 | 123 | 107 | 106 | 70.9 |
| Cc1c(Cl)cccc1S(=O)(=O)Nc1nc(NCCc2ccccc2)nc2c1CN(Cc1ccccc1)CC2 [CaMKII-IN-1] | > 10 | > 10 | > 10 | > 10 | 0.3 | 0 | 0 | 0 | 98.9 | 96.1 | 93 | 102 | 83.1 | 95.3 | 104 | 98.2 | 97.7 | 108 | 88.3 | 97.1 | 90.6 | 101 | 93.6 | 102 | 102 | 105 | 98.9 | 88.7 |  |  |  |  |  |  |
| Cn1nc(-c2cccc(F)c2)n(C)c1=S [suritozole] | > 10 | > 10 | > 10 | > 10 | 0 | 0 | 0 | 0 | 93.6 | 97.5 | 102 | 96 | 90.1 | 102 | 101 | 99.4 | 94.5 | 98.4 | 108 | 99.4 | 98.2 | 106 | 97 | 98.9 | 101 | 99.7 | 103 | 96 |  |  |  |  |  |  |
| O=C(NCC(=O)N1CC[C@H](N[C@H]2CC[C@@](O)(c3ccc(-c4ncccn4)cn3)CC2)C1)c1cccc(C(F)(F)F)c1 | > 10 | > 10 | > 10 | > 10 | 0 | 0 | 0 | 0 | 104 | 108 | 92.7 | 92.7 | 96.8 | 107 | 102 | 101 | 99.4 | 98.7 | 103 | 97.6 | 105 | 97.4 | 100 | 97.8 | 105 | 97.7 | 101 | 96.4 |  |  |  |  |  |  |
| CC(C)NCC(O)c1ccccc1Cl (stereo unspecified) [clorprenaline] | > 10 | > 10 | > 10 | > 10 | 0 | 0 | 0 | 0 | 99.7 | 104 | 94.7 | 93.7 | 102 | 99.8 | 95 | 99.8 | 99.6 | 106 | 101 | 102 | 93.4 | 97.3 | 113 | 94 | 103 | 95.6 | 102 | 103 |  |  |  |  |  |  |
| C[C@H](Nc1ncnc2nc[nH]c12)c1cc2cccc(Cl)c2c(=O)n1-c1ccccc1 [duvelisib] |  | > 10 |  | > 10 | 4.1 | 1.4 | 3 | 1.7 | 99.8 | 95.4 | 91.7 | 84.1 | 52.5 | 105 | 101 | 94.9 | 91.8 | 76.3 | 91.8 | 96.5 | 97.9 | 89.5 | 65.9 | 99.4 | 92.2 | 96.1 | 88.6 | 75.5 | 3.8 | 98.6 | 102 | 101 | 88.9 | 58.6 |
| COc1cc(CNC(=O)CCCC/C=C/C(C)C)ccc1O [capsaicin] | > 10 | > 10 |  | > 10 | 0 | 0 |  | 0 | 116 | 90.9 | 103 | 91.2 | 107 | 96.4 | 100 | 106 | 107 | 102 |  |  |  |  |  | 106 | 100 | 101 | 98.4 | 100 |  |  |  |  |  |  |
| NCCNS(=O)(=O)c1ccc(Cl)c2ccncc12 [CKI-7] | > 10 |  | > 10 | > 10 | 0.1 |  | 0 | 0 | 105 | 110 | 102 | 102 | 86.1 |  |  |  |  |  | 110 | 94.9 | 105 | 102 | 107 | 95.6 | 100 | 98.8 | 102 | 98.7 |  |  |  |  |  |  |
| C[C@]12CCC(=O)C=C1CC[C@@H]1[C@@H]2[C@@H](O)C[C@@]2(C)[C@H]1CC[C@]2(O)C(=O)CO [hydrocortisone] |  |  |  |  |  | 0 | 2.9 | 0 |  |  |  |  |  |  |  |  |  |  |  |  |  |  |  |  |  |  |  |  | 0 |  |  |  |  |  |
